Test results reported in patent publication US7101878B1 (Agouron Pharmaceuticals, Inc., priority 1998, dated 2006).
“Also recorded” adds a separate entry of the source. Like-named read-outs stand apart in the source and are kept apart here. Where a SMILES comes first, the peptide text is derived from it. [ ]: non-standard residue; d: D form. The star is where a group is joined. dPhe(4-Cl) = N[C@H](Cc1ccc(Cl)cc1)C(=O)O; d2Nal = N[C@H](Cc1ccc2ccccc2c1)C(=O)O; Lys(iPr) = CC(C)NCCCC[C@H](N)C(=O)O; d3Pal = N[C@H](Cc1cccnc1)C(=O)O; Nicotinoyl = O=C(c1cccnc1)*

How the values were obtained:
bovine GnRH receptor = biological target: T1, bovine GnRH receptor (Bos taurus, UniProt P32236); assay: Radioligand binding, 125I-GnRH-A, bovine pituitary membranes
T1 construct: membranes were prepared from bovine pituitary; from tissue; host or cells: bovine pituitary
T1 sequence (P32236 1-328): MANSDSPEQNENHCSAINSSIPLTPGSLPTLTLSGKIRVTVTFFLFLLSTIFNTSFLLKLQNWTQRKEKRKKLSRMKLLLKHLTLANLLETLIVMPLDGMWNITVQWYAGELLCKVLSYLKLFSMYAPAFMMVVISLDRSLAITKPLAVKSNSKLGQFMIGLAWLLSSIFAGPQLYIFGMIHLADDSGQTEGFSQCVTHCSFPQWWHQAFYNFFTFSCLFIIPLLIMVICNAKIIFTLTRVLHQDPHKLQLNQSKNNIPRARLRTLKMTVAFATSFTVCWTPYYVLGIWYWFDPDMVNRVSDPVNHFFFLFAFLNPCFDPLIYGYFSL
Procedure, shortened: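 Bound label captured on 0.1% polyethyleneimine-treated GF/C filters, washed three times with PBS, counted. IC50 derived; identical set-up for every species.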

[1] = test system: LH levels in castrated rats; assay: Castrated male rat model, LH suppression; type: in vivo
Description: Experimental Protocol: Male Sprague-Dawley (225-250 g) rats were castrated and allowed 10 days postoperative recovery. Ten days post castration animals were instrumented with indwelling femoral venous and arterial catheters to facilitate remote infusions and blood sampling. On the day of the experiment, animals were allowed to acclimate to the procedure room while residing in their home cage. Basal blood samples were drawn from all animals. Following basal sampling, either vehicle (10% DMSO, 10% cremophor/saline), Antide (1.0 μg) or compound 11 (10 mg/kg) was administered intravenously. Blood samples were drawn 10, 60, 90, 120, 180, 240 minutes after injections. Blood was centrifuged, serum collected and stored in −70° freezer until assayed. Serum samples were analyzed using DSL-4600 ACTIVE LH coated-tube immunoradiometric assay kit from Diagnostic Systems Laboratories, Inc.
Surgical removal of the gonads removes circulating testosterone and eliminates the negative feedback of testosterone on the hypothalamus. […] This model seems suitable for evaluating small molecule GnRH antagonists.
Male Sprague-Dawley ([…]) rats were castrated via the scrotal approach under halothane anesthesia. Animals were allowed 14 days post operative recovery prior to study. Thirteen days following castration, animals were anesthetized with halothane and instrumented with indwelling jugular vein cannula. Details of the cannulation procedure have been described previously {Harms and Ojeda, 1974)}. On study day, animals were allowed to acclimate to the procedure room while residing in their home cage. Basal blood samples were drawn from all animals. Immediately following basal sampling, vehicle or test compounds were administered by various routes. The routes of administration employed were intravenous (iv), intramuscular (im), intraperitoneal (ip), subcutaneous (sc) and oral (po). Blood samples were drawn into heparin containing tubes at multiple time points post treatment. Blood was centrifuged immediately, plasma collected and stored in −20° freezer until assayed. Plasma samples were analyzed using DSL-4600 ACTIVE LH coated-tube immunoradiometric assay kit from Diagnostic Systems Laboratories, Inc.
Formulation #1 (denoted with superscript 1): 10% DMSO, 10% Cremophor EL and 80% physiological saline.
Formulation #2 (denoted with superscript 2): 10% Cremophor EL and 90% physiological saline.

5-HT2a = 5-HT2a (Homo sapiens, UniProt P28223); assay: Selectivity: 5-HT2a
5-HT7 = 5-HT7 (Homo sapiens, UniProt P34969); assay: Selectivity: 5-HT7
ILRA (CXCR-1) = biological target: T2, ILRA (CXCR-1) (Homo sapiens, UniProt P25024); assay: Selectivity: ILRA (CXCR-1) / IL8
T2 sequence (P25024 1-350): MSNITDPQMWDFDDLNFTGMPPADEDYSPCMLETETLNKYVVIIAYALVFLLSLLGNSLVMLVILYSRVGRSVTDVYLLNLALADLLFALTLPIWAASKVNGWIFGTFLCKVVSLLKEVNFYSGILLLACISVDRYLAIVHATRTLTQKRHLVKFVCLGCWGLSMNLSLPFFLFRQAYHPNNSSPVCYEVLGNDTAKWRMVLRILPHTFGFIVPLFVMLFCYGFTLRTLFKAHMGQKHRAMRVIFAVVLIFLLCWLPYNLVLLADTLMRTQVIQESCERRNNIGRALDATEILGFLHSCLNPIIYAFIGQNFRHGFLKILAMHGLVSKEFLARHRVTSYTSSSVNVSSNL

GLP-1 = GLP-1 (Homo sapiens, UniProt P43220); assay: Selectivity: GLP-1
[2] = Metabolism rate, pmol/min/mg at 1 μM, rat female; type: in vitro ADME; conditions: 1 μM compound
[3] = means ± SE of at least three experiments performed in duplicate, read-out: Bovine IC50

5-HT2a, sequence (P28223 whole entry, species assumed): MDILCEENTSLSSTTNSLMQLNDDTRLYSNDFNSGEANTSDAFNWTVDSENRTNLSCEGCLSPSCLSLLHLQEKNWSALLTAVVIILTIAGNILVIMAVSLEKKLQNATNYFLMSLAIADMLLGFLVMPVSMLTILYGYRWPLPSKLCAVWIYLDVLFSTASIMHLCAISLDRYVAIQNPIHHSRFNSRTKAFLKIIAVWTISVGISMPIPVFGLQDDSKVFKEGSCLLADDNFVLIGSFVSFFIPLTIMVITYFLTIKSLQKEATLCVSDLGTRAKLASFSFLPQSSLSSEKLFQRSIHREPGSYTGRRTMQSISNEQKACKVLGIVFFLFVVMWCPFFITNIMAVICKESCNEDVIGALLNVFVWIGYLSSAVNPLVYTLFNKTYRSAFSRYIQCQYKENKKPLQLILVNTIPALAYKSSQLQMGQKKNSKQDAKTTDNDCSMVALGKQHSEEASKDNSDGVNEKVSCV
5-HT7, sequence (P34969 whole entry, species assumed): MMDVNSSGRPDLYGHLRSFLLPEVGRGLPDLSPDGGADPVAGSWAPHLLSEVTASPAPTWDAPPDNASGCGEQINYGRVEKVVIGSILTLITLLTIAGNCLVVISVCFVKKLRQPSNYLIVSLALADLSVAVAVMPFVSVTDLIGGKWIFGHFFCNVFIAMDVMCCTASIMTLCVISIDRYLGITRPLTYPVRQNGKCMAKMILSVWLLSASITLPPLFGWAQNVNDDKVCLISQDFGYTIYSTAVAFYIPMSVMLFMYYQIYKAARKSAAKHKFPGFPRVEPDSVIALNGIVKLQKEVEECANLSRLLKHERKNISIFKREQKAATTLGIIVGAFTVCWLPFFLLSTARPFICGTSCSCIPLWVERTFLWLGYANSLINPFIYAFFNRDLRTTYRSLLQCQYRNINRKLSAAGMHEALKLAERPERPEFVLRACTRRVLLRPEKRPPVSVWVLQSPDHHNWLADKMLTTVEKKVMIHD
GLP-1, sequence (P43220 24-463): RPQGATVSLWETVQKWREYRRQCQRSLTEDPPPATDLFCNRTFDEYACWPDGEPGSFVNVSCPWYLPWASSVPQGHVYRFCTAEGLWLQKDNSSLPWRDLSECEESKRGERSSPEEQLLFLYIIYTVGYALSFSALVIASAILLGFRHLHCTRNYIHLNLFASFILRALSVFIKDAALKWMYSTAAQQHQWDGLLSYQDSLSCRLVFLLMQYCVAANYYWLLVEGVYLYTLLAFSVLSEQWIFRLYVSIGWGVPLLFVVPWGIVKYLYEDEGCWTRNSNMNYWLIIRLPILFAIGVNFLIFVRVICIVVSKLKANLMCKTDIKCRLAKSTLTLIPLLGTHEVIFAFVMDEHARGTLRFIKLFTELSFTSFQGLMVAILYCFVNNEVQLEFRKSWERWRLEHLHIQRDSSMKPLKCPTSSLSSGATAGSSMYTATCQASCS

| Structure (SMILES) | IC50 (bovine GnRH receptor; [3]) [µM] | Ki (5-HT2a) [µM] | Ki (5-HT7) [µM] | IC50 (ILRA (CXCR-1)) [µM] | IC50 (GLP-1) [µM] | other results |
| --- | --- | --- | --- | --- | --- | --- |
| CC(=O)N[C@H](Cc1ccc2ccccc2c1)C(=O)N[C@H](Cc1ccc(Cl)cc1)C(=O)N[C@H](Cc1cccnc1)C(=O)N[C@@H](CO)C(=O)N[C@@H](CCCCNC(=O)c1cccnc1)C(=O)N[C@H](CCCCNC(=O)c1cccnc1)C(=O)N[C@@H](CC(C)C)C(=O)N[C@@H](CCCCNC(C)C)C(=O)N1CCC[C@H]1C(=O)N[C@H](C)C(N)=O [Antide, reference compound] (Ac-[d2Nal][dPhe(4-Cl)][d3Pal]SK(Nicotinoyl)[dK](Nicotinoyl)L[Lys(iPr)]P[dA]-NH2) | 0.00015 ± 2e-05 | – | – | – | – | LH in CX rats ([1]; Antide 2.0 and 20 ug, sc): reduces LH levels; also recorded: suppresses LH; LH in castrated rat model ([1]; intravenous, Antide 1.0 μg, compound 11 10 mg/kg): reduces LH |
| Cc1cc2c(cc1Cc1ccc(C(=O)NC[C@H]3CC[C@H](CNC(=N)N)CC3)o1)C(C)(C)CCC2(C)C [Compound 10] | 1.5 ± 0.48 | 1.2 | 1.27 | 6.4 | – | – |
| Cc1cc2c(cc1Cc1ccc(C(=O)NCC3CCCC(CNc4nccc(NCC5CCCO5)n4)C3)o1)C(C)(C)CCC2(C)C (stereo not shown) [Compound 11] | 0.32 ± 0.01 | – | 1.8 | > 10 | > 10 | – |
| Cc1cc2c(cc1Cc1ccc(C(=O)NC[C@H]3CC[C@H](C(=O)O)CC3)o1)C(C)(C)CCC2(C)C [Compound 12] | 10.4 ± 3 | > 4 | > 4.5 | > 10 | – | – |
| Cc1cnc(CNC(=O)c2ccc(Cc3cc4c(cc3C)C(C)(C)CCC4(C)C)o2)cn1 [Compound 13] | 0.53 ± 0.1 | – | > 4.4 | > 10 | > 10 | – |
| COc1cccc(OC)c1NC(=O)c1ccc(Cc2cc3c(cc2C)C(C)(C)CCC3(C)C)o1 [Compound 20] | – | 2.35 | > 4.4 | > 10 | > 10 | Ki (GLP-1): > 10 µM; IC50 (bovine GnRH receptor; read-out: bGnRH IC50): 0.13 µM; Ki (ILRA (CXCR-1)): > 10 µM |
| Cc1cc2c(cc1Cc1ccc(C(=O)NCc3nc4ccccc4[nH]3)o1)C(C)(C)CCC2(C)C [Compound 48] | – | – | > 4.4 | > 10 | > 10 | IC50 (bovine GnRH receptor; read-out: bGnRH IC50): 0.49 µM; % Max LH Suppression ([1]; 10 mg/kg iv): 75%; time of % Max LH Suppression ([1]; 10 mg/kg iv): 0.5 h; ≧50% Suppression Duration ([1]; 10 mg/kg iv): <1 h; % Max LH Suppression ([1]; 20 mg/kg iv): 51%; time of % Max LH Suppression ([1]; 20 mg/kg iv): 1 h; ≧50% Suppression Duration ([1]; 20 mg/kg iv): 1 h; Rat female pmol/min/mg 1 μM [2]: 135 pmol/min/mg |
